Measurements as given in US8124623B2, “5-hydroxymethyl-oxazolidin-2-one-derivatives and their uses as antibacterials” (Actelion Pharmaceuticals Ltd., priority 2006, dated 2012).
≈ marks a conversion by molar mass, not a printed value. Where two headings read alike, the source gives them in different places.

How the values were obtained:
[1] = system: C. difficile ATCC 9689; assay: MIC, anaerobic broth microdilution, reference strains; assay type: cell-based, Clostridium difficile; details: Clostridioides difficile, ATCC9689, 48 h, read-out: MIC regarding C. difficile ATCC 9689
[2] = system: S. aureus A798; assay: MIC, broth microdilution (NCCLS); assay type: cell-based; details: for MIC: Staphylococcus aureus, A798, read-out: MIC S. aureus A798
Protocol: These assays have been performed following the description given in “Methods for dilution Antimicrobial Susceptibility Tests for Bacteria that Grow Aerobically, 4th ed.; Approved standard: NCCLS Document M7-A4; National Committee for Clinical Laboratory Standards Villanova, Pa., USA, 1997”. Minimal inhibitory concentrations (MICs; mg/l) were determined in cation-adjusted Mueller-Hinton Broth (BBL) by a microdilution method following NCCLS guidelines (National Committee for Clinical Laboratory Standards. Methods for Dilution Antimicrobial Susceptibility). The pH1 of the test medium was 7.2-7.3. In the particular case wherein the compound to be tested is a compound of formula IPDc wherein at least one of R^1 and R^2 represents OPO3H2, then the test was carried out in the presence of human alkaline phosphatase (concentration: 1 U/mL). In the particular case wherein the compound to be tested is a compound of formula IPDG wherein R^1 represents a group OCOR^5, then the test may be carried out in the presence of 50% human serum.

[3] = system: C. perfringens DSM 756; assay: microbe, parasite or virus in culture; assay type: cell-based; details: Clostridium perfringens, DSM756, 48 h, read-out: MIC regarding C. perfringens DSM 756
[4] = system: C. difficile ATCC 43596; assay: MIC, anaerobic broth microdilution, reference strains; assay type: cell-based, Clostridium difficile; details: Clostridioides difficile, ATCC43596, 48 h, read-out: MIC regarding C. difficile ATCC 43596
[5] = system: C. difficile NC 13366; assay: as above; assay type: cell-based, Clostridium difficile; details: Clostridioides difficile, NC13366, 48 h, read-out: MIC regarding C. difficile NC 13366
[6] = system: M. catarrhalis A894; assay: MIC, broth microdilution (NCCLS); assay type: cell-based
[7] = system: S. Pneumoniae 49619; assay: MIC, broth microdilution (NCCLS); assay type: cell-based
Protocol: (§1) These assays have been performed following the description given in “Methods for dilution Antimicrobial Susceptibility Tests for Bacteria that Grow Aerobically, 4th ed.; Approved standard: NCCLS Document M7-A4; National Committee for Clinical Laboratory Standards Villanova, Pa., USA, 1997”. Minimal inhibitory concentrations (MICs; mg/l) were determined in cation-adjusted Mueller-Hinton Broth (BBL) by a microdilution method following NCCLS guidelines (National Committee for Clinical Laboratory Standards. Methods for Dilution Antimicrobial Susceptibility). The pH1 of the test medium was 7.2-7.3.

[8] = system: toxigenic C. difficile strain 10465; assay: C. difficile hamster model; assay type: in vivo, Golden Syrian hamsters
Protocol: Golden Syrian hamsters were given a single injection of clindamycin phosphate (10 mg/kg s.c.), and a day later animals were infected by gavage with 10^5 CFU of toxigenic C. difficile strain 10465. A fulminant colitis results in the majority (˜95%) of animals and develops 1 to 2 days after the administration of C. difficile. Untreated, the colitis progresses rapidly and turns into severe colitis, hemorrhagic necrosis of the cecum and death. The compound of Example 1 was administered orally as a suspension at three dosage levels (10 mg/kg, 30 mg/kg and 100 mg/kg; n=10 per group). Vancomycin (50 mg/kg) was used as a control. Animals were treated once daily for 5 days and afterwards maintain under observation for an additional 21 days.
The animals were observed three times daily for morbidity and presence or absence of diarrhoea. The final endpoint of the study was survival. Animals judged to be in a moribund state [extended period of weight loss progressing to an emaciated state, anorexia for 24-48 h, prolonged lethargy (more than 3 days), signs of paralysis, skin erosions or trauma, hunched posture, distended abdomen] were euthanized by a single injection of sodium pentobarbital.

[9] = system: C. difficile strain NC13366; assay type: cell-based; details: treated cultures compared to the untreated control, day 5
[10] = system: Lactobacillus acidophilus A-1255 DSM 20079; assay: MIC, particular anaerobic bacterial strains; assay type: cell-based
[11] = system: Finegoldia magna A-1254 DSM 20470; assay: MIC, particular anaerobic bacterial strains; assay type: cell-based
[12] = system: C. difficile strain NC13366; assay type: cell-based
[13] = system: Bacteroides fragilis A-992 ATCC 25285; assay: MIC, particular anaerobic bacterial strains; assay type: cell-based; details: ATCC25285
[14] = system: Bacteroides thetaiotaomicron A-990 ATCC 29741; assay: microbe, parasite or virus in culture; assay type: cell-based; details: ATCC29741
[15] = system: Eubacterium limosum A-1259 DSM 20698; assay: MIC, particular anaerobic bacterial strains; assay type: cell-based
[16] = system: Lactococcus lactis A-1256 DSM 20069; assay: MIC, particular anaerobic bacterial strains; assay type: cell-based
[17] = system: E. faecalis 29212; assay: MIC, broth microdilution (NCCLS); assay type: cell-based; details: Enterococcus faecalis, read-out: MIC against E. faecalis 29212
Protocol: as §1

[18] = system: 209 diverse clinical isolates of C. difficile; assay: MIC, CLSI agar dilution, clinical isolates; assay type: cell-based, Clostridium difficile; details: Clostridioides difficile, 209 clinical isolates of C. difficile
[19] = 10 mg/kg orally once daily for 5 days
[20] = 30 mg/kg orally once daily for 5 days
[21] = 1 and 8 μg/mL, day 5 vs day 1, high density stationary phase cultures

O=C(O)c1cn(C2CC2)c2cc(N3CCC(O)(COc4ccc(N5C[C@H](CO)OC5=O)cc4F)C3)c(F)cc2c1=O (mixture of isomers) [Example 6, 1-cyclopropyl-6-fluoro-7-{(RS)-3-[2-fluoro-4-((R)-5-hydroxymethyl-2-oxo-oxazolidin-3-yl)-phenoxymethyl]-3-hydroxy-pyrrolidin-1-yl}-4-oxo-1,4-dihydro-quinoline-3-carboxylic acid]
MIC [1]: 0.5 µg/mL | MIC [2]: 1 µg/mL | MIC [3]: 0.125 µg/mL | MIC [4]: 0.25 µg/mL | MIC [5]: 0.25 µg/mL

COc1c(N2CCC(O)(COc3ccc(N4C[C@H](CO)OC4=O)cc3F)C2)c(F)cc2c(=O)c(C(=O)O)cn(C3CC3)c12 (mixture of isomers) [Example 7, 1-cyclopropyl-6-fluoro-7-{(RS)-3-[2-fluoro-4-((R)—S-hydroxymethyl-2-oxo-oxazolidin-3-yl)-phenoxymethyl]-3-hydroxy-pyrrolidin-1-yl}-8-methoxy-4-oxo-1,4-dihydro-quinoline-3-carboxylic acid]
MIC M. catarrhalis A894 [6]: 0.063 µg/mL (≈ 0.105 µM) | MIC S. Pneumoniae 49619 [7]: 0.25 µg/mL (≈ 0.416 µM) | MIC S. aureus A798 [2]: 1 µg/mL (≈ 1.66 µM)

O=C(O)c1cn(C2CC2)c2cc(N3CCC(O)(COc4ccc(N5C[C@H](CO)OC5=O)cc4F)CC3)c(F)cc2c1=O [Example 1, 1-cyclopropyl-6-fluoro-7-{4-[2-fluoro-4-((R)-5-hydroxymethyl-2-oxo-oxazolidin-3-yl)-phenoxymethyl]-4-hydroxy-piperidin-1-yl}-4-oxo-1,4-dihydro-quinoline-3-carboxylic acid]
animals surviving the 5 day treatment period [8, 19]: all animals | animals surviving the relapse phase of 21 days after treatment [8, 19]: 40% | animals surviving the 5 day treatment period [8, 20]: all animals | animals surviving the relapse phase of 21 days after treatment without relapse [8, 20]: 80% | animals surviving the 5 day treatment period ([8]; 100 mg/kg orally once daily for 5 days): all animals | reduction of toxin B activity of culture supernatants [9]: > 90% | less activity than compound of Example 5 of WO 2005/058888 (R1) [10]: 8 times | less activity than compound of Example 5 of WO 2005/058888 (R1) [11]: 4 times | de novo toxin A production in supernatants [12, 21]: inhibited de novo toxin A production | MIC [13]: 8 µg/mL (≈ 13.7 µM) | MIC [14]: 8 µg/mL (≈ 13.7 µM) | less activity than compound of Example 5 of WO 2005/058888 (R1) [15]: 4 times | less activity than compound of Example 5 of WO 2005/058888 (R1) [16]: 8 times

O=C(O)c1cn(C2CC2)c2nc(N3CCC(O)(COc4ccc(N5C[C@H](CO)OC5=O)cc4F)CC3)c(F)cc2c1=O [Example 3, 1-cyclopropyl-6-fluoro-7-[4-[2-fluoro-4-((R)-5-hydroxymethyl-2-oxo-oxazolidin-3-yl)-phenoxymethyl]-4-hydroxy-piperidin-1-yl]-4-oxo-1,4-dihydro-[1,8]naphthyridine-3-carboxylic acid]
MIC ([6]; Moraxella catarrhalis, A894): 0.5 µg/mL (≈ 0.852 µM) | MIC [2]: 0.25 µg/mL (≈ 0.426 µM)

CCn1cc(C(=O)O)c(=O)c2cc(F)c(N3CCC(COc4ccc(N5C[C@H](CO)OC5=O)cc4F)CC3)cc21 [Example 11, 1-ethyl-6-fluoro-7-{4-[2-fluoro-4-((R)-5-hydroxymethyl-2-oxo-oxazolidin-3-yl)-phenoxymethyl]-piperidin-1-yl}-4-oxo-1,4-dihydro-quinoline-3-carboxylic acid]
MIC [17]: 8 µg/mL (≈ 14.3 µM) | MIC [2]: > 16 µg/mL

Cc1ncc([N+](=O)[O-])n1CCO [metronidazole]
MIC90 [18]: 1 µg/mL (≈ 5.84 µM) | de novo toxin A production in supernatants [12, 21]: did not inhibit toxin A production under these conditions or did so only weakly

CN[C@H](CC(C)C)C(=O)N[C@H]1C(=O)N[C@@H](CC(N)=O)C(=O)N[C@H]2C(=O)N[C@H]3C(=O)N[C@H](C(=O)N[C@H](C(=O)O)c4cc(O)cc(O)c4-c4cc3ccc4O)[C@H](O)c3ccc(c(Cl)c3)Oc3cc2cc(c3O[C@@H]2O[C@H](CO)[C@@H](O)[C@H](O)[C@H]2O[C@H]2C[C@](C)(N)[C@H](O)[C@H](C)O2)Oc2ccc(cc2Cl)[C@H]1O [vancomycin]
de novo toxin A production in supernatants [12]: did not inhibit toxin A production under these conditions or did so only weakly
